From ChEMBL document CHEMBL1201862, “PubChem BioAssay data set” (2004) come the findings set out here.

Assay [1] concerns the target Leucine-rich repeat serine/threonine-protein kinase 2 (Homo sapiens, UniProt Q5S007). The format is functional.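 Also: value from a broad kinome-wide panel profiling study in which LRRK2 was one of the kinases tested.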
The target of assay [2] is MAP kinase-activated protein kinase 3 (Homo sapiens, UniProt Q16644). The format is functional.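 Also: value comes from a kinome-wide profiling panel in which MAPKAPK3 is one of the panel members.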
Assay [3] has as its target Serine/threonine-protein kinase MRCK alpha (Homo sapiens, UniProt Q5VT25). The assay is classed as functional.
In assay [4] the target is Receptor-type tyrosine-protein kinase FLT3 (Homo sapiens, UniProt P36888). The assay is classed as functional.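 Also: FLT3 was tested as one member of a kinome-wide kinase panel.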
For assay [5], the target named is ALK tyrosine kinase receptor (Homo sapiens, UniProt Q9UM73). The assay is classed as functional.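 Also: ALK tested as one member of a kinase panel screen.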
In assay [6] the target is Epidermal growth factor receptor (Homo sapiens, UniProt P00533).
Assay [7] concerns the target Serine/threonine-protein kinase D3 (Homo sapiens, UniProt O94806). The format is functional.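 Also: determined within a kinase panel screen, with PRKCN as the panel member.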
The target of assay [8] is Phosphorylase b kinase gamma catalytic chain, liver/testis isoform (Homo sapiens, UniProt P15735). The format is functional.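 Also: PHKG2 measured as one member of a kinome-wide kinase panel.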
For assay [9], the target named is cGMP-dependent protein kinase 1 (Homo sapiens, UniProt Q13976). The format is functional.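 Also: value from a kinome panel screen with PRKG1 as the panel member.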
For assay [10], the target named is Protein kinase C theta type (Homo sapiens, UniProt Q04759). Description: Navigating the Kinome. Panel member name: PRKCQ. The assay is classed as functional.
The target of assay [11] is Death-associated protein kinase 3 (Homo sapiens, UniProt O43293). The assay is classed as functional.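 Also: measured as one member of a kinome-wide profiling panel.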
Assay [12] deals with Calcium/calmodulin-dependent protein kinase type 1 (Homo sapiens, UniProt Q14012). The format is functional.
For assay [13], the target named is Serine/threonine-protein kinase TAO1 (Homo sapiens, UniProt Q7L7X3). The format is functional.
Assay [14] deals with cAMP-dependent protein kinase catalytic subunit alpha (Homo sapiens, UniProt P17612). The assay is classed as functional.
Assay [15] addresses Macrophage-stimulating protein receptor (Homo sapiens, UniProt Q04912). Description: Navigating the Kinome. Panel member name: MST1R. The format is functional.
For assay [16], the target named is T1, Caspase-6 (Homo sapiens, UniProt P55212).
T1 sequence (P55212 whole entry): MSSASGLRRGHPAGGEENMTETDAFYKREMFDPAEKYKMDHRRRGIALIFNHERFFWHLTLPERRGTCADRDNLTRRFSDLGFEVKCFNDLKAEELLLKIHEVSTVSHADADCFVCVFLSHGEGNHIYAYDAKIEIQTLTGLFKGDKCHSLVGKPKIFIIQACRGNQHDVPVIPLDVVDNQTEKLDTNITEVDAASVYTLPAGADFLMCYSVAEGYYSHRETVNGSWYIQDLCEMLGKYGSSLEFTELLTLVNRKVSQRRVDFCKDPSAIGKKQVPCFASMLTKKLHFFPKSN
Description: inhibition of CASP6 peptide cleavage – biochemical, VEID-R110 fluorescence, cherry-pick, dose response (AID 720632).

In assay [17] the target is T2, Caspase-3 (Homo sapiens, UniProt P42574).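 Also: Dose-response selectivity test against caspase-3 for candidate inhibitors of sentrin-specific proteases (SENPs).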
T2 sequence (P42574 whole entry): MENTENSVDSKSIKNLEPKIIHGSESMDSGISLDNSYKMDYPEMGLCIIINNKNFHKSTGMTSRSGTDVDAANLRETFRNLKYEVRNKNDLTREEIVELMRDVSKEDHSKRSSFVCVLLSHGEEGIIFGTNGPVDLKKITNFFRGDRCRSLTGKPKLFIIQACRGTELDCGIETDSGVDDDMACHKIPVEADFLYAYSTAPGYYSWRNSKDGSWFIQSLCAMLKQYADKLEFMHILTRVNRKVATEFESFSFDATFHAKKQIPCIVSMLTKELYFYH
The format is functional.

Assay [18] has as its target T3, Sentrin-specific protease 8 (Homo sapiens, UniProt Q96LD8).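 Also: luminescence read-out of SENP8 inhibition, dose-response confirmation following an ultra-high-throughput screen.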
T3 sequence (Q96LD8 whole entry): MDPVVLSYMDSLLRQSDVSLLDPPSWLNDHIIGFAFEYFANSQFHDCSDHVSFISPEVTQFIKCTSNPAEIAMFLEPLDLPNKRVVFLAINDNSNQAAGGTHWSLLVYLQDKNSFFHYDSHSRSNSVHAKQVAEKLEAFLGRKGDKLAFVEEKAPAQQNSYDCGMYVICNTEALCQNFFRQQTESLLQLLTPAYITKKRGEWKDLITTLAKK
The format is functional.

Assay [19] addresses T4, Sentrin-specific protease 7 (Homo sapiens, UniProt Q9BQF6).
T4 sequence (Q9BQF6 whole entry): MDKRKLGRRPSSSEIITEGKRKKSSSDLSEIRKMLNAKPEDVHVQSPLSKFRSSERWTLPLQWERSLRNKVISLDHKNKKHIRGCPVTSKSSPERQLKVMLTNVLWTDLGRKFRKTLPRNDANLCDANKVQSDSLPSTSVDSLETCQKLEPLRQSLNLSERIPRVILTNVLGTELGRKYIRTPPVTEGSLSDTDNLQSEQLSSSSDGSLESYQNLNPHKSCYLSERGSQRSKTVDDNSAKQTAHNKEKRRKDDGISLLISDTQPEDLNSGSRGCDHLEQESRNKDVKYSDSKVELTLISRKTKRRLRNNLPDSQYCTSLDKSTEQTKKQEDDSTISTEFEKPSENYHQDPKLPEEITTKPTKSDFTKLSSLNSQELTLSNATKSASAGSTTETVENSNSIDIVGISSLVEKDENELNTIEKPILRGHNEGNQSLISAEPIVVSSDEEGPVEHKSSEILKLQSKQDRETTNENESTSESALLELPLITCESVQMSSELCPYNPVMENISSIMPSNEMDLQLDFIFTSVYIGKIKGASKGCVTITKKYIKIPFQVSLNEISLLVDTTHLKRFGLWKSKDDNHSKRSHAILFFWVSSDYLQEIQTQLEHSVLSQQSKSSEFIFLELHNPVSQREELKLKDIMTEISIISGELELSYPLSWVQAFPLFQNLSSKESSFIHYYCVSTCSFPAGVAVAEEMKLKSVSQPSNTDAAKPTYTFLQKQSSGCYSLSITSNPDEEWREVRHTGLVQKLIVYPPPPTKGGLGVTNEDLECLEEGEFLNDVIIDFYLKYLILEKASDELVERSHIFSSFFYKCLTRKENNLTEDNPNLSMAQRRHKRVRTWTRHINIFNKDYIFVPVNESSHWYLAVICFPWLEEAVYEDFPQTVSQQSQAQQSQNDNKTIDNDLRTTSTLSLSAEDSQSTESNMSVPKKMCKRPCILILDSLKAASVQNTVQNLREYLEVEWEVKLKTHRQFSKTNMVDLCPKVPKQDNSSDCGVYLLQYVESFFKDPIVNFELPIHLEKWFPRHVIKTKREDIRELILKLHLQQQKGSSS
As to the kind of experiment: inhibition of human SENP7 cleavage activity – biochemical, luminescence, SAR follow-up (AID 504497). The format is functional.

Assay [20] addresses Peroxisome proliferator-activated receptor gamma/Nuclear receptor corepressor 2 (Homo sapiens, UniProt P37231+Q9Y618). The assay is classed as functional.

Calls of active or inactive are those of the source.

Serine/threonine-protein kinase D3, sequence (O94806 whole entry, canonical isoform): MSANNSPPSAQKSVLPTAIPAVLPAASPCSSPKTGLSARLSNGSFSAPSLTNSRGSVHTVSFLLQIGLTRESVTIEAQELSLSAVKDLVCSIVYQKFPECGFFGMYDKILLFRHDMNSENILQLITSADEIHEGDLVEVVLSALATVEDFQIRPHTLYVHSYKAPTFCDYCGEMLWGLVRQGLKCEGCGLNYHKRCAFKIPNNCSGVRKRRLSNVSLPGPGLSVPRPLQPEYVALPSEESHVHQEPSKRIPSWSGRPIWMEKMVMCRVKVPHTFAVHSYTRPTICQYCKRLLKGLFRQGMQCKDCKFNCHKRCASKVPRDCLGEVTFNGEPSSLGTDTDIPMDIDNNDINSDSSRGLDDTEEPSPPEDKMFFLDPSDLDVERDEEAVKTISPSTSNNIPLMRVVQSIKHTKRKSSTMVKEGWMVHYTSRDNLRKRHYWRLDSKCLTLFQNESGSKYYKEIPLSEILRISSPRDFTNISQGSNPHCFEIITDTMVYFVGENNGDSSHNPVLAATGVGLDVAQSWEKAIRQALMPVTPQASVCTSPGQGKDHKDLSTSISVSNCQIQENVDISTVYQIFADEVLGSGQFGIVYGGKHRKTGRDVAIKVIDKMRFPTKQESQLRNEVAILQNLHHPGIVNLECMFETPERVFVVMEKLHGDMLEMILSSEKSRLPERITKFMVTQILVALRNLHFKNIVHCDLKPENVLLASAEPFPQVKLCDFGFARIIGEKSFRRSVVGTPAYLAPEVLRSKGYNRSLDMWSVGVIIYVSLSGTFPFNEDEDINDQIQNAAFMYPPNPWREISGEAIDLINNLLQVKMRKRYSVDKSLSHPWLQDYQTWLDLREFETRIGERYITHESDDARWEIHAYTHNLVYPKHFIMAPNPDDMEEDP
MAP kinase-activated protein kinase 3, sequence (Q16644 whole entry): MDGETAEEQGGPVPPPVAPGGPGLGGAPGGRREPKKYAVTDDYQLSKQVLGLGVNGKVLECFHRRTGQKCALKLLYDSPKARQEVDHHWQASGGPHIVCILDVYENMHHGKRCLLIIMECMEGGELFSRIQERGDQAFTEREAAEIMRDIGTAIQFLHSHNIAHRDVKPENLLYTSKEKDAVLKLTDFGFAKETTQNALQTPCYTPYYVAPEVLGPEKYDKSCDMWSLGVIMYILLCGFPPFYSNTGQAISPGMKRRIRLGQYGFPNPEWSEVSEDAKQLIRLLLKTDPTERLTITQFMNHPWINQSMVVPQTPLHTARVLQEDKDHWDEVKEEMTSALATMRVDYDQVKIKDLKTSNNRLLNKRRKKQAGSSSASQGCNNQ
ALK tyrosine kinase receptor, sequence (Q9UM73 whole entry): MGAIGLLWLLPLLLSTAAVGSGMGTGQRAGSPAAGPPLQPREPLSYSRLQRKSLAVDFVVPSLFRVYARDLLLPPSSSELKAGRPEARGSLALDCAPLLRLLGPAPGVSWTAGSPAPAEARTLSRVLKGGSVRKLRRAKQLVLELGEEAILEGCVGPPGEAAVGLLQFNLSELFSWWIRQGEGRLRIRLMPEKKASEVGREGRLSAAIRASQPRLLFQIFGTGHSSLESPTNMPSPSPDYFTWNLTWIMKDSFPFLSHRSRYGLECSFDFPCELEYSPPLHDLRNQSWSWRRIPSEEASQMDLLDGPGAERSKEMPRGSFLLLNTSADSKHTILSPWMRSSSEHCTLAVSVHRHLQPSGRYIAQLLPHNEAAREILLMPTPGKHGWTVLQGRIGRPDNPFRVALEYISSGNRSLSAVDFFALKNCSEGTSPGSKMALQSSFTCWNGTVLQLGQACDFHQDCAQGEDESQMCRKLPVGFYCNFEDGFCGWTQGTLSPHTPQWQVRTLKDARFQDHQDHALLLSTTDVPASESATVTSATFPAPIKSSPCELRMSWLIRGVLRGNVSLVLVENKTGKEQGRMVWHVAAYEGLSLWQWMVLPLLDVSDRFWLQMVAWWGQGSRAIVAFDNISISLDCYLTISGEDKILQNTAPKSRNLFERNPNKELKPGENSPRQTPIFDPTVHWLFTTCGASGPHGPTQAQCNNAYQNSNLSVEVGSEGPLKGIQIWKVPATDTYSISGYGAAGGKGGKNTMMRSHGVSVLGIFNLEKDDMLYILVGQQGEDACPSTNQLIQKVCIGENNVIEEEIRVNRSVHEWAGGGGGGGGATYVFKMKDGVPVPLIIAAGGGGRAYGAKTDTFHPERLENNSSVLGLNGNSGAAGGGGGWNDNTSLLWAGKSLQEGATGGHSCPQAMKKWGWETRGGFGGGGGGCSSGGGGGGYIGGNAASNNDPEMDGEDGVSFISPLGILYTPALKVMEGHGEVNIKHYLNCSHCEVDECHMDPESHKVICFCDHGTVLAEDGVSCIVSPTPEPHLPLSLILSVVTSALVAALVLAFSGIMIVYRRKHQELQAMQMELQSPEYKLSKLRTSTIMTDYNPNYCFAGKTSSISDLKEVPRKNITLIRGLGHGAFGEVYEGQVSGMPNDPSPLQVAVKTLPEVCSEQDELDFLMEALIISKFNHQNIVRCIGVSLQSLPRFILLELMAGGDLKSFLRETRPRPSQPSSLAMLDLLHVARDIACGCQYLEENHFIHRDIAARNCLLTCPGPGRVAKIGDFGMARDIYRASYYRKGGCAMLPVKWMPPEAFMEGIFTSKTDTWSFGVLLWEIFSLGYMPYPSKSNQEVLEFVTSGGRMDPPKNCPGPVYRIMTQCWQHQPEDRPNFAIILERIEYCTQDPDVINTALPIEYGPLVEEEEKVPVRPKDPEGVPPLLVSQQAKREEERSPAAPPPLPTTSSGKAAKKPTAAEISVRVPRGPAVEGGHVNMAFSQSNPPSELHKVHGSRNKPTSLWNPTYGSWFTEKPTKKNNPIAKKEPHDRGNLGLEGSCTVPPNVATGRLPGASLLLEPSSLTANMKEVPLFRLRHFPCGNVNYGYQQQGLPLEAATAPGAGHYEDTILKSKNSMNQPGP
Epidermal growth factor receptor, sequence (P00533 whole entry): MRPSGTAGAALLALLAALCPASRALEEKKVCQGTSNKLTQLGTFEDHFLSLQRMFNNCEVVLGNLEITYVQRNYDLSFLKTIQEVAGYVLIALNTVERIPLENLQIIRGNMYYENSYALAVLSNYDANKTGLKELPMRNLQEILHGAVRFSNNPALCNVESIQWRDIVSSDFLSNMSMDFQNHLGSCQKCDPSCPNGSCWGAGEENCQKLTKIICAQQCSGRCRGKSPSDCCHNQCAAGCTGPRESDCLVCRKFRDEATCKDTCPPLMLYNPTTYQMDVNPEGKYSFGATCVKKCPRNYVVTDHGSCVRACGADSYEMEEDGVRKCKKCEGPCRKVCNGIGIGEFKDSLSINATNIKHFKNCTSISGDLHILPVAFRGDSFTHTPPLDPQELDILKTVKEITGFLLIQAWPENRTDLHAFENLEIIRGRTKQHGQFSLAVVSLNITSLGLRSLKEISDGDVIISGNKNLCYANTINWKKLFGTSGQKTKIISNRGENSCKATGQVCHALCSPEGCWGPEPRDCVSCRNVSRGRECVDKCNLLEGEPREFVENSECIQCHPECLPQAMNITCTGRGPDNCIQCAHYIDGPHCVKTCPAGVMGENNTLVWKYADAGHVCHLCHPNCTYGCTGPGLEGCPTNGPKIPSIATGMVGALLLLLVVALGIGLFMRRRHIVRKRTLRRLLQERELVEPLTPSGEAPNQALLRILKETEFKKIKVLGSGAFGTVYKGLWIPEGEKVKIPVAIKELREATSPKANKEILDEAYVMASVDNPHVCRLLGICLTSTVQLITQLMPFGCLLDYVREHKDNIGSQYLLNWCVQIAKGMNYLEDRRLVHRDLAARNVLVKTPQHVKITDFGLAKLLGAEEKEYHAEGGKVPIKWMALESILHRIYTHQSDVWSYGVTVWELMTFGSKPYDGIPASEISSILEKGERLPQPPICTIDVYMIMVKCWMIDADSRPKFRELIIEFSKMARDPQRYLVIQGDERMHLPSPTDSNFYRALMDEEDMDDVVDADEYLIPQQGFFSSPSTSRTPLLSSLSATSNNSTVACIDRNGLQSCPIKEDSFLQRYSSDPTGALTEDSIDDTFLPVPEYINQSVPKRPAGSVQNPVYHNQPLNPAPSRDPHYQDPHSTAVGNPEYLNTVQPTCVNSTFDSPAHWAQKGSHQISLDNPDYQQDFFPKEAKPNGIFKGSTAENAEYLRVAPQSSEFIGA
Protein kinase C theta type, sequence (Q04759 whole entry): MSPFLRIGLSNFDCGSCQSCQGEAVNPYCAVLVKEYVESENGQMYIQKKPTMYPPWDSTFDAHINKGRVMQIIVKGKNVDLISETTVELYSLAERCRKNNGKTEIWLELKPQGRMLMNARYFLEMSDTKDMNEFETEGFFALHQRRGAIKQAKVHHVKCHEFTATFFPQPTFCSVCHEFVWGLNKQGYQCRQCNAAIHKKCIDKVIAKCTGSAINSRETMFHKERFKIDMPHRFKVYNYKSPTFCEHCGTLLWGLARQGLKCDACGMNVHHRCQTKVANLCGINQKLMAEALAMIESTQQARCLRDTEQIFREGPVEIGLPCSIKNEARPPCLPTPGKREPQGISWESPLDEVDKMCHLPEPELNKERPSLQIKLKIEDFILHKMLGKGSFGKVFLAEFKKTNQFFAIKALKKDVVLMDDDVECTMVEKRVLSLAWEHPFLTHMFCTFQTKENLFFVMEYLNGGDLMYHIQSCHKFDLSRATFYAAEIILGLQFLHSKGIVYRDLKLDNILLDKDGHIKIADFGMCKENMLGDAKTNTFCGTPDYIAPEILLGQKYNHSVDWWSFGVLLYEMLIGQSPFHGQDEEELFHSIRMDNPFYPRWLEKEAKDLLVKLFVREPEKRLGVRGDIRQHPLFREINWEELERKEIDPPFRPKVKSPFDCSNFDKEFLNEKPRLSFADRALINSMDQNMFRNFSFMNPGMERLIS

Consider `CC(N)C1CCC(C(=O)Nc2ccnc3[nH]ccc23)CC1` (stereo not given), for which the Ki in assay [1] was 0.02 µM (active); in [2], > 10 µM (inactive); in assay [3] it was 3.98 µM (active); in assay [4], > 3.16 µM (inactive); in assay [5], 2 µM (active); in assay [6], > 2 µM (inactive). Besides, the inhibition constant (Ki) in assay [7] was 0.398 µM (active); in assay [8], > 5.01 µM (inactive); in [9], 0.631 µM (active); in assay [10], 0.00794 µM (active); in assay [11], > 1.26 µM (inactive); in assay [12], > 1.58 µM (inactive). The Ki in [13] was > 7.94 µM (inactive); in assay [14], 0.0794 µM (active); in assay [15], 2 µM (active).
As to `Cc1c(NC(=O)C(C)OC(=O)c2ccc([N+](=O)[O-])s2)c(=O)n(-c2ccccc2)n1C` (stereo not given), the AC50 in [16] is 4.82 µM (active). Besides, the figures for the IC50 in [17] and in assay [18] were 13.6 µM (active) and 6.5 µM (active), respectively.
As to `COc1cc(Br)c(C(=O)c2nccc3cc(OC)c(OC)cc23)cc1OC`, the IC50 in assay [19] was 2.99 µM (active); in assay [20], > 39.8 µM (not active).

The term Ki denotes the dissociation constant of the complex between target and ligand, obtained from inhibition or displacement. One may read the AC50 as the midpoint of the concentration-response curve, whichever way the signal moves. One may read the IC50 as the concentration needed to halve the response being measured.
